In paper PMC3726442 (PLoS ONE, 2013):

What was measured:
CYP3A4/5 = test system: CYP3A4/5; parameters: method as in PMID 19088019; settings: major primary metabolite, CYP3A4/5-mediated; cited from earlier work
[1] = Plasma concentrations of tamoxifen and its metabolites in breast cancer patients on tamoxifen, by HPLC-tandem mass spectrometry
Excerpt: One hundred and thirty five Caucasian patients of Spanish descent recently diagnosed with BC were recruited from the center Fundación Tejerina-Centro de Patología de la Mama (Madrid). Premenopausal and postmenopausal women were enrolled when started on TAM as standard adjuvant therapy after undergoing primary surgery, radiation and adjuvant chemotherapy. Patients were excluded if they had started TAM therapy simultaneously with either adjuvant chemotherapy or adjuvant radiation therapy (or both) or if they were undergoing other adjuvant endocrine therapies. Patients who were pregnant or breast-feeding were also excluded from the study. […] Blood samples were collected within 3 to 60 months of initiating TAM treatment.
Venous blood was collected from all 135 subjects before taking their daily 20- mg dose of TAM. Ten milliliters of heparin plasma were separated by centrifugation and immediately stored at −20°C until analysis. In addition, one milliliter of an EDTA blood sample was taken for subsequent DNA extraction and genotyping. DNA was isolated from peripheral leukocytes using a QIAamp DNA Blood Mini Kit® (Qiagen, Madrid, Spain) according to the manufacturer’s instructions. The DNA concentration was determined and adjusted to 2–20 ng/ µL.
TAM and its metabolites were separated and quantified by high-pressure liquid chromatography-tandem mass spectrometry using an Agilent HPLC 1200 system. HPLC experiments were performed using a binary pump G1312A, a G1316A column oven, G1379B degasser and an automatic injector H-ALS G1367B. Mobile phase A and phase B consisted of 0.1% formic acid in water and acetonitrile, respectively. Mobile phases A and B were pumped through a ZORBAX Eclipse XDB-C18 column (150 mm×2.1 mm I.D., 3.5 µm, Agilent USA) at a flow rate of 0.2 mL/min using the gradient shown in Table 1. Separation was conducted at 30°C. 15- µL aliquots were injected and the autosampler needle was rinsed in acetonitrile/water solution (1∶1). The total run time was 20 min. During the first 4.0 and last 2.0 min, the eluate was removed using a divert valve to avoid endogenous compounds entering the mass spectrometer.
As a detector, we used an A 6410 Triple Quadrupole mass spectrometer (Agilent Technologies, USA) equipped with a heated electrospray ionization source (Thermo Fisher Scientific, Waltham, MA, USA) operating in positive ion mode. For quantification, multiple reaction monitoring (MRM) chromatograms were acquired using Mass Hunter software version B.01.04 (Agilent Technologies, USA). Positive ions were created at atmospheric pressure. Quadrupoles operated at unit resolution (0.7 Da).
A 300- µL volume of 1% formic acid in acetonitrile containing internal standards was added to a 100- µL serum aliquot. After vortexing and centrifugation, the clear supernatant was transferred to a HybridSPE column (Supelco) and the eluents stored at 2–8°C until analysis. Samples were analyzed in triplicate.
Descriptive statistics were calculated using standard methods. Metabolic ratios were calculated as the concentration of substrate/concentration of metabolite. The non-normal distribution of data was confirmed by the Kolmogorov-Smirnov test. Levels of TAM, metabolites and ratios between genotype groups were compared using Wilcoxon-Mann-Whitney or Kruskal-Wallis tests. All statistical tests (two-sided) were performed using SPSS software (version 18.0 SPSS, Chicago, IL). Significance was set at a p<0.05.

[2] = all samples analyzed, n = 125, before daily 20 mg TAM dose

CC/C(=C(\c1ccccc1)c1ccc(OCCNC)cc1)c1ccccc1 [N-desmethyl-tamoxifen]
share of primary TAM oxidation (CYP3A4/5): 90% | mean plasma concentration (±SD) [1, 2]: 450.54 ± 188.79 ng/mL | median plasma concentration [1, 2]: 418.46 ng/mL | mean concentration relative to the TAM concentration ([1]; all samples, n = 125): over 2 times | plasma concentration, mean ±SD ([1]; genotype SULT1A1 *2/*2, n = 15): 459.42 ± 160.94 ng/mL | plasma concentration, median ([1]; genotype SULT1A1 *2/*2, n = 15): 432.49 ng/mL | plasma concentration, range ([1]; genotype SULT1A1 *2/*2, n = 15): (212.67–782.92) ng/mL | plasma concentration, mean ±SD ([1]; genotype SULT1A1 wt/*2, n = 46): 441.63 ± 176.28 ng/mL | plasma concentration, median ([1]; genotype SULT1A1 wt/*2, n = 46): 418.46 ng/mL | plasma concentration, range ([1]; genotype SULT1A1 wt/*2, n = 46): (196.74–1191.13) ng/mL | plasma concentration, mean ±SD ([1]; genotype SULT1A1 wt/wt, n = 60): 458.09 ± 209.96 ng/mL | plasma concentration, median ([1]; genotype SULT1A1 wt/wt, n = 60): 411.53 ng/mL | plasma concentration, range ([1]; genotype SULT1A1 wt/wt, n = 60): (35.96–1210.09) ng/mL | plasma concentration, mean ±SD ([1]; genotype SULT1A2 *2/*2, n = 16): 453.17 ± 128.87 ng/mL | plasma concentration, median ([1]; genotype SULT1A2 *2/*2, n = 16): 427.03 ng/mL | plasma concentration, range ([1]; genotype SULT1A2 *2/*2, n = 16): (238.36–782.92) ng/mL | plasma concentration, mean ±SD ([1]; genotype SULT1A2 *2/*3, n = 13): 478.66 ± 162.35 ng/mL | plasma concentration, median ([1]; genotype SULT1A2 *2/*3, n = 13): 527.52 ng/mL | plasma concentration, range ([1]; genotype SULT1A2 *2/*3, n = 13): (228.81–676.02) ng/mL | plasma concentration, mean ±SD ([1]; genotype SULT1A2 *3/*3, n = 5): 478.49 ± 198.83 ng/mL | plasma concentration, median ([1]; genotype SULT1A2 *3/*3, n = 5): 485.02 ng/mL | plasma concentration, range ([1]; genotype SULT1A2 *3/*3, n = 5): (242.88–768.62) ng/mL | plasma concentration, mean ±SD ([1]; genotype SULT1A2 wt/*2, n = 33): 478.01 ± 247.44 ng/mL | plasma concentration, median ([1]; genotype SULT1A2 wt/*2, n = 33): 399.40 ng/mL | plasma concentration, range ([1]; genotype SULT1A2 wt/*2, n = 33): (212.67–1210.09) ng/mL | plasma concentration, mean ±SD ([1]; genotype SULT1A2 wt/*3, n = 16): 425.36 ± 207.64 ng/mL | plasma concentration, median ([1]; genotype SULT1A2 wt/*3, n = 16): 324.21 ng/mL | plasma concentration, range ([1]; genotype SULT1A2 wt/*3, n = 16): (167.40–952.85) ng/mL | plasma concentration, mean ±SD ([1]; genotype SULT1A2 wt/wt, n = 38): 428.02 ± 162.17 ng/mL | plasma concentration, median ([1]; genotype SULT1A2 wt/wt, n = 38): 413.16 ng/mL | plasma concentration, range ([1]; genotype SULT1A2 wt/wt, n = 38): (35.96–847.98) ng/mL | plasma concentration, mean ±SD ([1]; genotype SULT1E1 *2/*2, n = 5): 455.57 ± 104.52 ng/mL | plasma concentration, median ([1]; genotype SULT1E1 *2/*2, n = 5): 497.51 ng/mL | plasma concentration, range ([1]; genotype SULT1E1 *2/*2, n = 5): (311.12–550.12) ng/mL | plasma concentration, mean ±SD ([1]; genotype SULT1E1 wt/*2, n = 28): 462.59 ± 167.53 ng/mL | plasma concentration, median ([1]; genotype SULT1E1 wt/*2, n = 28): 426.41 ng/mL | plasma concentration, range ([1]; genotype SULT1E1 wt/*2, n = 28): (196.74–768.62) ng/mL | plasma concentration, mean ±SD ([1]; genotype SULT1E1 wt/wt, n = 88): 448.30 ± 202.82 ng/mL | plasma concentration, median ([1]; genotype SULT1E1 wt/wt, n = 88): 399.40 ng/mL
